Laboratory results: ChEMBL document CHEMBL1147460, “Syntheses and SAR studies of 4-(heteroarylpiperdin-1-yl-methyl)-pyrrolidin-1-yl-acetic acid antagonists of the human CCR5 chemokine receptor” (Bioorg Med Chem Lett, 2004)

Tests used:
[1] = biological target: T1, C-C chemokine receptor type 5 (Homo sapiens, UniProt P51681); assay: Inhibition of human C-C chemokine receptor type 5 assayed using [125I]-MIP-1 alpha as radioligand
HeLa [2] = assay: Anti viral activity in anti HIV-1 infectivity assay in HeLa Magi cells; format: functional; settings: Homo sapiens
HeLa [3] = assay: Anti viral activity was determined in anti HIV-1 infectivity assay in HeLa Magi cells; format: functional, cell-based; settings: Homo sapiens
[4] = Plasma clearance in rat; format: ADME, organism-based; settings: read-out: Clp
[5] = Volume of distribution in rat; format: ADME, organism-based; settings: in vivo, read-out: Vdss
[6] = Half life in rat; format: ADME, organism-based; settings: in vivo
[7] = Oral bioavailability in rat; format: ADME, organism-based; settings: in vivo
[8] = biological target: T1, C-C chemokine receptor type 5; assay: Inhibitory concentration against C-C chemokine receptor type 5 using [125I]-MIP-1 alpha as radioligand

T1 sequence (P51681 whole entry): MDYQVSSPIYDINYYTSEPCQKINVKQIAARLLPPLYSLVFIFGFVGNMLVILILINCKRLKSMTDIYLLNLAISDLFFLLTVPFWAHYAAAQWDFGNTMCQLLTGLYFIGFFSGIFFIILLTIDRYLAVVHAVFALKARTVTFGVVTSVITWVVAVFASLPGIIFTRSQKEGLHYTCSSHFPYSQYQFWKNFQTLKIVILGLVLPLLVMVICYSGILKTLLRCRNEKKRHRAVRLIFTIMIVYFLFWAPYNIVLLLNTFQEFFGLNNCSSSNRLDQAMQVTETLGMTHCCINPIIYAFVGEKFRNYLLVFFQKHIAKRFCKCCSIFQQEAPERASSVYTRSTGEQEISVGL

| SMILES | IC50 [1] [nM] | IC50 (HeLa [3]) [nM] | also measured |
| --- | --- | --- | --- |
| O=C(O)[C@@H](CC1CCC1)N1C[C@H](CN2CCC(c3[nH]c(Cc4ccccc4)nc3Cl)CC2)[C@@H](c2cccc(F)c2)C1 | 0.6 | 0.13 |  |
| O=C(O)[C@@H](C1CCCCC1)N1C[C@H](CN2CCC(c3csc(Cc4ccccc4)n3)CC2)[C@@H](c2ccccc2)C1 | 1.3 |  | IC90 (HeLa [2]): 33 nM |
| CCc1nc(Cc2ccccc2)sc1C1CCN(C[C@H]2CN([C@H](CC3CCC3)C(=O)O)C[C@@H]2c2cccc(F)c2)CC1 | 0.76 | 0.13 |  |
| CCc1nc(Cc2ccccc2)oc1C1CCN(C[C@H]2CN([C@H](CC3CCC3)C(=O)O)C[C@@H]2c2cccc(F)c2)CC1 | 0.89 | 0.13 |  |
| O=C(O)[C@@H](C1CCCCC1)N1C[C@H](CN2CCC(c3nocc3-c3ccccc3)CC2)[C@@H](c2ccccc2)C1 | 27 |  |  |
| O=C(O)[C@@H](C1CCCCC1)N1C[C@H](CN2CCC(c3nc(-c4ccccc4)c[nH]3)CC2)[C@@H](c2ccccc2)C1 | 23 |  |  |
| O=C(O)[C@@H](C1CCCCC1)N1C[C@H](CN2CCC(c3cc(-c4ccccc4)no3)CC2)[C@@H](c2ccccc2)C1 |  |  | IC50 [8]: 18.1 nM |
| CCc1nc(Cc2ccccc2)[nH]c1C1CCN(C[C@H]2CN([C@H](CC3CCC3)C(=O)O)C[C@@H]2c2cccc(F)c2)CC1 | 0.57 | 0.4 |  |
| O=C(O)[C@@H](C1CCCCC1)N1C[C@H](CN2CCC(c3ncc(Cc4ccccc4)o3)CC2)[C@@H](c2ccccc2)C1 | 1.5 |  | IC90 (HeLa [2]): 100 nM |
| O=C(O)[C@@H](CC1CCC1)N1C[C@H](CN2CCC(c3cnc(Cc4ccccc4)o3)CC2)[C@@H](c2ccccc2)C1 | 0.34 | 3.7 |  |
| O=C(O)[C@@H](C1CCCCC1)N1C[C@H](CN2CCC(c3cnc(Cc4ccccc4)[nH]3)CC2)[C@@H](c2ccccc2)C1 | 0.67 |  |  |
| O=C(O)[C@@H](CC1CC1)N1C[C@H](CN2CCC(c3[nH]c(Cc4ccccc4)nc3Cl)CC2)[C@@H](c2cccc(F)c2)C1 | 0.7 | 0.4 | clearance [4]: 60.5 mL/min/kg; Vd [5]: 1.05 L/kg; half-life [6]: 31.8 min; bioavailability [7]: 1.1% |
| O=C(O)[C@@H](C1CCCCC1)N1C[C@H](CN2CCC(c3cnc(-c4ccccc4)[nH]3)CC2)[C@@H](c2ccccc2)C1 | 6.2 |  | IC90 (HeLa [2]): 33 nM |
| O=C(O)[C@@H](CC1CCC1)N1C[C@H](CN2CCC(c3c[nH]c(Cc4ccccc4)n3)CC2)[C@@H](c2ccccc2)C1 | 0.38 | 100 |  |
| O=C(O)[C@@H](C1CCCCC1)N1C[C@H](CN2CCC(c3csc(-c4ccccc4)n3)CC2)[C@@H](c2ccccc2)C1 | 1.1 |  | IC90 (HeLa [2]): 100 nM |
| O=C(O)[C@@H](CC1CC1)N1C[C@H](CN2CCC(c3c[nH]c(Cc4ccccc4)n3)CC2)[C@@H](c2ccccc2)C1 | 0.73 | 100 |  |

Further lines, with some results ahead:

| IC50 [1] [nM] | IC50 (HeLa [3]) [nM] | SMILES | also measured |
| --- | --- | --- | --- |
| 2 |  | O=C(O)[C@@H](C1CCCCC1)N1C[C@H](CN2CCC(c3ncc(Cc4ccccc4)s3)CC2)[C@@H](c2ccccc2)C1 | IC90 (HeLa [2]): 33 nM |
| 7 | 300 | CC(C)[C@H](C(=O)O)N1C[C@H](CN2CCC(c3cnc(Cc4ccccc4)[nH]3)CC2)[C@@H](c2ccccc2)C1 |  |
| 1.6 | 3.7 | O=C(O)[C@@H](CC1CC1)N1C[C@H](CN2CCC(c3cnc(Cc4ccccc4)o3)CC2)[C@@H](c2ccccc2)C1 |  |
| 0.23 | 0.13 | O=C(O)C(CC1CCC1)N1CC(c2ccccc2)[C@@H](CN2CCC(c3cnc(Cc4ccccc4)s3)CC2)C1 (some centres undefined) |  |
| 3.8 | 300 | CC(C)[C@H](C(=O)O)N1C[C@H](CN2CCC(c3cnc(Cc4ccccc4)o3)CC2)[C@@H](c2ccccc2)C1 |  |
| 1 | 0.13 | CCc1nc(Cc2ccccc2)sc1C1CCN(C[C@H]2CN([C@@H](C(=O)O)C(C)C)C[C@@H]2c2cccc(F)c2)CC1 | clearance [4]: 1.15 mL/min/kg; Vd [5]: 0.54 L/kg; half-life [6]: 50.4 min; bioavailability [7]: 19% |
| 0.23 | 0.13 | O=C(O)C(CC1CC1)N1CC(c2ccccc2)[C@@H](CN2CCC(c3cnc(Cc4ccccc4)s3)CC2)C1 (some centres undefined) |  |
| 0.29 |  | O=C(O)[C@@H](C1CCCCC1)N1C[C@H](CN2CCC(c3cnc(Cc4ccccc4)s3)CC2)[C@@H](c2ccccc2)C1 | IC90 (HeLa [2]): 0.14 nM |
| 0.51 | 11 | CC(C)[C@H](C(=O)O)N1C[C@H](CN2CCC(c3cnc(Cc4ccccc4)s3)CC2)[C@@H](c2ccccc2)C1 |  |
